According to US20130252930A1 (BIOMARIN PHARMACEUTICAL INC., priority 2010, published 2013):
pIC50: −log10 of the molar value. Read-outs that look alike come from different tables or passages of the source.

What was measured:
Format in all cases: biochemical
[1] = target: T1, CYP17 (human testicular microsome) (Homo sapiens, UniProt P05093); test: CYP17 enzymatic assay (% inhibition at 10 nM), version 1 (Biological Example 5)
T1 construct: using microsomal fraction from human testis (Celsis Cat #S00110) as the enzyme source; tissue Celsis S00110; host or cells: human testis microsomal fraction
T1 sequence (P05093 1-508): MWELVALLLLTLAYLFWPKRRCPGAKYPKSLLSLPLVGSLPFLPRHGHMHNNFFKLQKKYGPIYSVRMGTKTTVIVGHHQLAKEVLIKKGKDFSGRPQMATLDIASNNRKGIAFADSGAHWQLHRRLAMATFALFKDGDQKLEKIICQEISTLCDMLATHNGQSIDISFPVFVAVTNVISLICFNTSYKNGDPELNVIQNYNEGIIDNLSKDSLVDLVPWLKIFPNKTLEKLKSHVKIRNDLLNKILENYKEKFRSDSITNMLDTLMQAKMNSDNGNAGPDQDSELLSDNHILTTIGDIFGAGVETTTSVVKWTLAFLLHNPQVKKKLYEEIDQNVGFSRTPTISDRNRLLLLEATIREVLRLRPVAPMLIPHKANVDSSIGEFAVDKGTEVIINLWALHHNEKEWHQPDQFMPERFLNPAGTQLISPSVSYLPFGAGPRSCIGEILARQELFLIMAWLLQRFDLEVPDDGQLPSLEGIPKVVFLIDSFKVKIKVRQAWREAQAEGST

[2] = target: T1, CYP17 (human testicular microsome); test: CYP17 enzymatic assay (IC50) (Biological Example 4); conditions: human testicular microsome
Method: The assays were performed in 96-well plates. Typical assays were carried out in total 100 μL volume that included test compounds at designated concentrations, 1× reaction buffer, 0.5 mM NADPH, 1 μM 17α-hydroxypregnenolone, and 2.5 μL of diluted human testicular microsome (Celsis. Cat #S00110). Reaction without test compound served as positive control. Reactions were allowed to incubate at 37° C. for 90 minutes with gentle shaking. The reaction was stopped by directly applying the enzymatic reaction mixture to ELISA plate for evaluation of DHEA concentration according to manufacturer's protocol (IBL America). A standard curve (OD450 vs. DHEA concentration) was generated using purified DHEA.

[3] = target: T1, CYP17 (human testicular microsome); test: CYP17 enzymatic assay (% inhibition at 1 nM) (Biological Example 12); conditions: compound at 1 nM
[4] = 10 nM compound, DHEA by ELISA, read-out: Biological Example No. 5: CYP17 percent inhibition at 10 nM (version 1)
[5] = read-out: CYP17 enzymatic assay IC50 (Biological Example No. 4)
[6] = read-out: CYP17 enzymatic assay % inhibition at 1 nM (Biological Example No. 12)
[7] = compound at 10 nM, read-out: CYP17 enzymatic assay % inhibition at 10 nM (Biological Example No. 5)
[8] = read-out: Biological Example No. 4: CYP17 enzymatic assay IC50
[9] = read-out: Biological Example No. 12: CYP17 enzymatic assay % inhibition at 1 nM

Question: How did the inhibition at 0.01 µM [1, 4] turn out when `COc1cncc(C2=CC[C@H]3[C@@H]4CC=C5CCCC[C@]5(C)[C@H]4CC[C@]23C)c1` [Compound 66, 3-((10R,13S)-10,13-dimethyl-2,3,4,7,8,9,10,11,12,13,14,15-dodecahydro-1H-cyclopenta[a]phenanthren-17-yl)-5-methoxypyridine] was run?
Answer: 50 to 80%

Question: `CCOc1cncc(C2=CC[C@H]3[C@@H]4CCC5N(C)C(=O)COC[C@]5(C)[C@H]4CC[C@]23C)c1` (stereo partly drawn) [Compound 99, (5aR,5bS,7aS,10aS,10bS)-8-(5-ethoxypyridin-3-yl)-1,5a,7a-trimethyl-5,5a,5b,6,7,7a,10,10a,10b,11,12,12a-dodecahydro-1H-cyclopenta[5,6]naphtho[2,1-e][1,4]oxazepin-2(3H)-one] was tested. Which inhibition at 0.01 µM [1, 4] did it give?
Answer: 1 to 50%

Question: How did the pIC50 [2, 5] turn out when `Cc1cncc(C2=CC=C3[C@@H]4CCC5CC(=O)NCC[C@]5(C)[C@H]4CC[C@]23C)c1` (stereo partly drawn) [Compound 460, (5aS,5bS,7aS,10bR)-5a,7a-dimethyl-8-(5-methylpyridin-3-yl)-3,4,5,5a,5b,6,7,7a,10b,11,12,12a-dodecahydrocyclopenta[5,6]naphtho[1,2-d]azepin-2(1H)-one] was run?
Answer: > 7.96

Question: What about the inhibition at 0.001 µM [3, 6] of the same compound?
Answer: > 50%

Question: How did the pIC50 [2, 5] turn out when `Cc1cncc(C2=CC[C@H]3[C@@H]4CC=C5C[C@H](NC(=O)C6CC6)CC[C@]5(C)[C@H]4CC[C@]23C)c1` [Compound 227, N-((3R,10R,13S)-10,13-dimethyl-17-(5-methylpyridin-3-yl)-2,3,4,7,8,9,10,11,12,13,14,15-dodecahydro-1H-cyclopenta[a]phenanthren-3-yl)cyclopropanecarboxamide] was run?
Answer: > 7.96

Question: What about the inhibition at 0.001 µM [3, 6] of the same compound?
Answer: > 50%

Question: Which inhibition at 0.01 µM [1, 4] does the source give for `CCCOc1cncc(C2=CC[C@H]3[C@@H]4CCC5=CCN(C)CC[C@]5(C)[C@H]4CC[C@]23C)c1` [Compound 149] here?
Answer: 1 to 50%

Question: How did the pIC50 [2, 5] turn out when `CC1=C2CCC3C4=CC=C(c5cccnc5)[C@@]4(C)CCC3[C@@]2(C)CCC1O` (stereo partly drawn) [Compound 299, (10R,13S)-4,10,13-trimethyl-17-(pyridin-3-yl)-2,3,6,7,8,9,10,11,12,13-decahydro-1H-cyclopenta[a]phenanthren-3-ol] was run?
Answer: > 7.96

Question: And the inhibition at 0.001 µM [3, 6]?
Answer: < 10%

Question: Which inhibition at 0.01 µM [1, 4] does the source give for `Cc1cncc(C2=CC[C@H]3[C@@H]4CCC5N(C)C(=O)COC[C@]5(C)[C@H]4CC[C@]23C)c1` (stereo partly drawn) [Compound 445, (5aR,5bS,7aS,10aS,10bS)-1,5a,7a-trimethyl-8-(5-methylpyridin-3-yl)-5,5a,5b,6,7,7a,10,10a,10b,11,12,12a-dodecahydro-1H-cyclopenta[5,6]naphtho[2,1-e][1,4]oxazepin-2(3H)-one] here?
Answer: 1 to 50%

Question: How did the inhibition at 0.01 µM [1, 4] turn out when `COc1cncc(C2=CC[C@H]3[C@@H]4CCC5=CCN(C)CC[C@]5(C)[C@H]4CC[C@]23C)c1` [Compound 148] was run?
Answer: 1 to 50%

Question: For `C[C@]12CC[C@H]3[C@@H](CC[C@H]4CNC(=O)CC[C@@]43C)C1=CC=C2n1ccnc1` [Compound 448, (5aR,5bS,7aS,10bR,12aR)-8-(1H-imidazol-1-yl)-5a,7a-dimethyl-1,2,5,5a,5b,6,7,7a,10b,11,12,12a-dodecahydrocyclopenta[5,6]naphtho[2,1-c]azepin-3(4H)-one], which inhibition at 0.01 µM [1, 7] is on record?
Answer: 50 to 80%

Question: For `C[C@]12CCC(=O)NCC1CCC1C2CC[C@]2(C)C(n3ccnc3)=CCC12` (stereo partly drawn) [Compound 136, (5aR,7aS)-8-(1H-imidazol-1-yl)-5a,7a-dimethyl-1,2,5,5a,5b,6,7,7a,10,10a,10b,11,12,12a-tetradecahydrocyclopenta[5,6]naphtho[2,1-c]azepin-3(4H)-one], which inhibition at 0.01 µM [1, 4] is on record?
Answer: 50 to 80%

Question: `COC1CC[C@@]2(C)[C@@H](CC[C@@H]3[C@@H]2CC[C@]2(C)C(n4ccnn4)=CC[C@@H]32)C1` (stereo partly drawn) [Compound 452, 1-((5S,8R,9S,10S,13S,14S)-3-methoxy-10,13-dimethyl-2,3,4,5,6,7,8,9,10,11,12,13,14,15-tetradecahydro-1H-cyclopenta[a]phenanthren-17-yl)-1H-1,2,3-triazole] was tested. Which inhibition at 0.01 µM [1, 7] did it give?
Answer: 1 to 50%

Question: How did the inhibition at 0.01 µM [1, 4] turn out when `COc1cncc(C2=CC[C@H]3[C@@H]4CCN5CCCCC[C@]5(C)[C@H]4CC[C@]23C)c1` [Compound 47, (11aR,13aS)-1-(5-methoxypyridin-3-yl)-11a,13a-dimethyl-3a,3b,4,5,7,8,9,10,11,11a,11b,12,13,13a-tetradecahydro-3H-azepino[2,1-a]cyclopenta[f]isoquinoline] was run?
Answer: 1 to 50%

Question: How did the inhibition at 0.01 µM [1, 4] turn out when `Cc1cncc(C2=CC[C@H]3[C@@H]4CC[C@H]5CCCCC[C@]5(C)[C@H]4CC[C@]23C)c1` [Compound 91, 3-((3aS,3bR,5aR,10aS,10bS,12aS)-10a,12a-dimethyl-3,3a,3b,4,5,5a,6,7,8,9,10,10a,10b,11,12,12a-hexadecahydrocyclohepta[a]cyclopenta[f]naphthalen-1-yl)-5-methylpyridine] was run?
Answer: 1 to 50%

Question: How did the pIC50 [2, 8] turn out when `CC1=C2CC[C@@H]3[C@H](CC[C@]4(C)C(c5cccnc5)=CC[C@@H]34)[C@@]2(C)CCC1O` (mixture of isomers) [Compound 302, (10R,13S)-4,10,13-trimethyl-17-(pyridin-3-yl)-2,3,6,7,8,9,10,11,12,13,14,15-dodecahydro-1H-cyclopenta[a]phenanthren-3-ol] was run?
Answer: > 7.96

Question: And the inhibition at 0.001 µM [3, 9]?
Answer: 10 to 50%

Question: With `C[C@]12CCC(=O)NC[C@@H]1CC[C@@H]1[C@@H]2CC[C@]2(C)C(n3ccnn3)=CC[C@@H]12` [Compound 138, (5aR,5bS,7aS,10aS,10bR,12aR)-5a,7a-dimethyl-8-(1H-1,2,3-triazol-1-yl)-1,2,5,5a,5b,6,7,7a,10,10a,10b,11,12,12a-tetradecahydrocyclopenta[5,6]naphtho[2,1-c]azepin-3(4H)-one] as the compound, how does the inhibition at 0.01 µM [1, 4] read?
Answer: 1 to 50%

Question: With `Cc1cncc(C2=CC[C@H]3[C@@H]4CC=C5CCCC[C@]5(C)[C@H]4CC[C@]23C)c1` [Compound 65, 3-((10R,13S)-10,13-dimethyl-2,3,4,7,8,9,10,11,12,13,14,15-dodecahydro-1H-cyclopenta[a]phenanthren-17-yl)-5-methylpyridme] as the compound, how does the inhibition at 0.01 µM [1, 4] read?
Answer: 50 to 80%

Question: How did the inhibition at 0.01 µM [1, 7] turn out when `COC1CC[C@@]2(C)[C@@H](CC[C@@H]3[C@@H]2CC[C@]2(C)C(c4cncc(C)c4)=CC[C@@H]32)C1` (stereo partly drawn) [Compound 450, 3-((5S,8R,9S,10S,13S,14S)-3-methoxy-10,13-dimethyl-2,3,4,5,6,7,8,9,10,11,12,13,14,15-tetradecahydro-1H-cyclopenta[a]phenanthren-17-yl)-5-methylpyridine] was run?
Answer: 1 to 50%

Question: `C[C@]12CCCNCC1CCC1C2CC[C@]2(C)C(n3ccnn3)=CCC12` (stereo partly drawn) [Compound 140, (5aR,7aS)-5a,7a-dimethyl-8-(1H-1,2,3-triazol-1-yl)-1,2,3,4,5,5a,5b,6,7,7a,10,10a,10b,11,12,12a-hexadecahydrocyclopenta[5,6]naphtho[2,1-c]azepine] was tested. Which inhibition at 0.01 µM [1, 4] did it give?
Answer: 1 to 50%

Question: With `C[C@]12CC[C@H]3[C@@H](CC(F)C4(O)CC(=O)CC[C@]34C)[C@@H]1CC=C2c1cccnc1` (stereo partly drawn) [Compound 310e, (10R,13S)-6-fluoro-5-hydroxy-10,13-dimethyl-17-(pyridin-3-yl)-4,5,6,7,8,9,10,11,12,13,14,15-dodecahydro-1H-cyclopenta[a]phenanthren-3(2H)-one] as the compound, how does the pIC50 [2, 8] read?
Answer: > 7.96

Question: What about the inhibition at 0.001 µM [3, 9] of the same compound?
Answer: > 50%

Question: `C[C@]12CC[C@@H](NC(=O)C3CCC3)CC1=CCC1C2CC[C@]2(C)C(c3cccnc3)=CCC12` (stereo partly drawn) [Compound 226, N-((3R,10R,13S)-10,13-dimethyl-17-(pyridin-3-yl)-2,3,4,7,8,9,10,11,12,13,14,15-dodecahydro-1H-cyclopenta[a]phenanthren-3-yl)cyclobutanecarboxamide] was tested. Which pIC50 [2, 5] did it give?
Answer: > 7.96

Question: And the inhibition at 0.001 µM [3, 6]?
Answer: > 50%

Question: With `CC(=O)O[C@H]1CC[C@@]2(C)C(=CC[C@H]3C4=CC=C(n5ccnc5)[C@@]4(C)CC[C@@H]32)C1` [Compound 73, (3S,10R,13S)-17-(1H-imidazol-1-yl)-10,13-dimethyl-2,3,4,7,8,9,10,11,12,13-decahydro-1H-cyclopenta[a]phenanthren-3-yl acetate] as the compound, how does the pIC50 ([2]; DHEA by ELISA, read-out: Biological Example No. 4: CYP17 enzymatic assay IC50) read?
Answer: > 7.96

Question: How did the pIC50 [2, 8] turn out when `C[C@]12CC[C@H]3[C@@H](CC(F)C4(O)CC(=O)CC[C@]34C)[C@@H]1CC=C2c1cncc(F)c1` (stereo partly drawn) [Compound 324, (10R,13S)-6-fluoro-17-(5-fluoropyridin-3-yl)-5-hydroxy-10,13-dimethyl-4,5,6,7,8,9,10,11,12,13,14,15-dodecahydro-1H-cyclopenta[a]phenanthren-3(2H)-one] was run?
Answer: > 7.96

Question: And the inhibition at 0.001 µM [3, 9]?
Answer: > 50%

Question: What does the source list for `CC1CC2C3CC=C(c4cccnc4)[C@@]3(C)CCC2[C@@]2(C)CC[C@H](O)CC12O` (stereo partly drawn) [Compound 410, (3S,10R,13S)-6,10,13-trimethyl-17-(pyridin-3-yl)-2,3,4,5,6,7,8,9,10,11,12,13,14,15-tetradecahydro-1H-cyclopenta[a]phenanthrene-3,5-diol]?
Answer: pIC50 [2, 8]: > 7.96; inhibition at 0.001 µM [3, 9]: > 50%
